Where two headings read alike, the source gives them in different places.
Key:
Assay type in all cases: cell-based, human
[1] = tested on: HCT116 colorectal carcinoma cells; experiment: MTS cell viability / cell growth inhibition assay; conditions: for GI50: Homo sapiens, HCT-116, 72 h
Experimental: With milligram quantities of 1a-1i at hand, we began our studies to evaluate the relative efficacy of each analogue using cell growth inhibition studies in HCT116 colorectal carcinoma cells. As reported in FIG. 3, GI50 values were collected for each analog after a 72 h treatment using the MTS cell viability assay (Table 12). Under these conditions, the natural FD-895 (1), 3S-FD-895 (1a) 17S-FD-895 (1d), 17-methoxy-FD-895 (1e) provided activities of <10 nM.
HCT-116 cells was cultured in McCoy's 5a (Life Technologies) supplemented with 10% fetal bovine serum (FBS), 2 mM L-glutamine, and 100 U mL^−1 of penicillin and 100 μg mL^−1 of streptomycin at 37° C. in an atmosphere of 5% CO2. Compounds were dissolved in DMSO (MilliporeSigma). Cells were treated with 1-1j in media with ≥0.5% DMSO for 4-72 h.
Studies were conducted in […] cell culture plates. HCT-116 plated at 5×10^3 cells/well were cultured for 24 h and then treated with analogs 1-1j for 4-72 h, then washed twice with 100 μL PBS. PBS (100 μL) was added to each well, followed by 20 μL of CellTiter Aqueous One Solution (Promega). After 2 h at 37° C., absorbance readings were taken at 490 nm (test wavelength) and 690 nm (reference wavelength). GI50 values were calculated in Prism (GraphPad) using greater 3 replicates.
(§1) Cells were treated with 1 or 1a-1j in media (McCoy's 5a (Life Technologies) supplemented with 10% FBS, 2 mM L-glutamine, and 100 U mL^−1 of penicillin and 100 μg mL^−1 of streptomycin 0.5% DMSO) for 4 h or 24 h. Untreated cells were considered were used as negative control. Total RNA was isolated using mirVana miRNA isolation kit (Life Technologies). A 1 μg sample of RNA was subjected to DNAseI from a TURBO DNA free kit (Life Technologies). The cDNA was prepared by using SuperScript III reverse transcriptase kit (Life Technologies). The amount of unspliced RNA for different genes was determined using Power SYBR Green PCR master mix (Applied Biosystems) by qPCR using specific primers for each gene. qPCR using 2.5 μM of each primer was performed on 5 ng of the obtained cDNA. qPCR conditions were as follows: 95° C. for 10 min for one cycle, then 95° C. for 10 min for one cycle, then 95° C. for 30 s, 55° C. for 60 s, 72° C. for 60 s, for 40 cycles using the MXPro. Quantification cycle (Cq) values were identified for each sample, and then RNA levels were calculated using 2-ΔΔCT method. GAPDH was used as a control for normalization. At least three replicates were conducted for each compound. Namely, all genes explored in this study were evaluated from the same cell cultures. Here, individual cultures were used for each compound explored and at least three replicates were used for each compound. While experimental variation occurred between the different compound treatments, the levels of the different intron retention, exon skipping or RNA expression were collected from the same cellular material. Statistics were calculated using a standard one-way ANOVA; p values were represented so that * signifies p<0.0001. HCT116 were treated with analogs 1-1j ranging from 0.1-5000 nM for 72 hours, then cell viability was measured using the MTS assay. GI50 values and confidence intervals were calculated using GraphPad (Table 12).

DNAJB1 = experiment: qPCR splicing analysis, DNAJB1 intron retention; conditions: HCT116, 4 h, 20 times GI50, qPCR relative to GAPDH
Experimental: (§2) HCT116 tumor cells were treated with each analogue at 20 times the G150 value (Table 12) for 4 hours and then cellular RNA was isolated and purified for qPCR. Primers were designed to evaluate intron retention or exon skipping, direct responses to splice modulator treatment. Genes evaluated included those involved in splicing regulation (SF3A1, SF3A3, SF3B1, SF3B2), apoptosis (MCL-1L), protein folding (DNAJB1), and cell cycle regulation (AURKA, PLK-1) relative to the unspliced control GAPDH. For alternative splicing regulator (SF2), primers were designed to evaluate gene expression, which changes in response splice modulator treatment for SF2 relative to the unspliced control GAPDH. (−) denotes untreated cells.
as §2, with “analogues” for “each analogue”, “100 nM (light grey), 250 nM (grey), or 500 nM (black)” for “20 times the G150 value (Table 12)”, “24 h” for “4 hours”, “(MCL-1L), and” for “(MCL-1L),”, “(DNAJB1),” for “(DNAJB1), and cell cycle regulation (AURKA, PLK-1)”, “(—)” for “(−)”
(§3) Next, we turned our efforts to explore the ability of these analogues to modulate splicing. […] We treated cells for 4 h so that we could evaluate early changes in splicing activity, and then cellular RNA was isolated and purified for analyses by qPCR (FIG. 14). Most importantly, none of the concentrations tested led to significant changes in cell viability, ensuring that changes in gene expression were not due to cell death.
(§4) For these studies, we evaluated the expression of genes involved in splicing regulation (SF3A1, SF3A3, SF3B1, SF3B2), apoptosis (MCL-1L), protein folding (DNAJB1), and cell cycle regulation (AURKA, PLK-1) relative to the unspliced control GAPDH. Primers were designed to evaluate intron retention or exon skipping, direct responses to splice modulator treatment. The master splicing regulator alternative splicing factor (SF2) was also evaluated, with the primers for this gene designed to evaluate overall gene expression, which changes in response to splice modulator treatment.
(§5) From this 4 h study (FIG. 14), a small set of analogs (1, 1b, 1g, 1d, 1e, 1i and 1j) were selected to evaluate if effects on splicing when presented for a longer 24 h period. […] Using identical procedures as that used for 4 h, HCT116 cells were treated with three concentrations (100 nM, 250 nM and 500 nM) of each analog for 24 h. Multiple concentrations were used as a means to check further validate the use of the GI50 concentration in our prior study (FIG. 14). As before, none of the concentrations tested led to significant changes in cell viability over the 24-hour time window, ensuring that changes in gene expression were not due to cell death.
(§6) Cells were treated with 1 or 1a-1j in media (McCoy's 5a (Life Technologies) supplemented with 10% FBS, 2 mM L-glutamine, and 100 U mL^−1 of penicillin and 100 μg mL^−1 of streptomycin 0.5% DMSO) for 4 h or 24 h. Untreated cells were considered were used as negative control. Total RNA was isolated using mirVana miRNA isolation kit (Life Technologies). […]

SF3A1 = experiment: qPCR splicing analysis, SF3A1 intron retention; conditions: HCT116, 4 h, 20 times GI50, qPCR relative to GAPDH
Experimental: as §2
as §2, with “analogues” for “each analogue”, “100 nM (light grey), 250 nM (grey), or 500 nM (black)” for “20 times the G150 value (Table 12)”, “24 h” for “4 hours”, “(MCL-1L), and” for “(MCL-1L),”, “(DNAJB1),” for “(DNAJB1), and cell cycle regulation (AURKA, PLK-1)”, “(—)” for “(−)”
as §3, §4, §5
as §6, with “Technologies). A 1 μg sample of RNA was subjected to DNAseI from a TURBO DNA free kit (Life Technologies). The cDNA was prepared by using SuperScript III reverse transcriptase kit (Life Technologies).” for “Technologies).”

HCT116 tumor cells = experiment: qPCR structure-splicing profile over the gene panel; conditions: HCT116, 24 h, 100, 250, 500 nM, compared to 1
Experimental: as §2, with “analogues” for “each analogue”, “100 nM (light grey), 250 nM (grey), or 500 nM (black)” for “20 times the G150 value (Table 12)”, “24 h” for “4 hours”, “(MCL-1L), and” for “(MCL-1L),”, “(DNAJB1),” for “(DNAJB1), and cell cycle regulation (AURKA, PLK-1)”, “(—)” for “(−)”
as §4, §5, §1

[2] = HCT116, 72 hours, MTS assay, 0.1-5000 nM, read-out: GI50 value

| Compound | GI50 ([1]; read-out: GI50 value) [µM] | GI50 ([1]; read-out: GI50 value (text)) [µM] | GI50 [1, 2] [µM] | SF3A1 intron 6 retention (level of intron retention) (SF3A1) | other results |
| --- | --- | --- | --- | --- | --- |
| CC[C@H](OC)[C@@H](C)[C@H]1O[C@@H]1[C@H](O)[C@H](C)/C=C/C=C(\C)[C@@H]1OC(=O)C[C@H](O)CC[C@@](C)(O)[C@@H](OC(C)=O)/C=C/[C@H]1C [Analog 1c, 10R,11R-FD-895] | 36.6 | 37 |  |  |  |
| CC[C@H](OC)[C@@H](C)[C@H]1O[C@@H]1[C@H](OC)[C@H](C)/C=C/C=C(\C)[C@H]1OC(=O)C[C@H](O)CC[C@@](C)(O)[C@@H](OC(C)=O)/C=C/[C@@H]1C [Analog 1e, 17-methoxy-FD-895] |  |  | 0.00221 | more effective than 1 | cell growth inhibitory activity compared to FD-895 ([1]; HCT-116 cells): comparable cell growth inhibitor activity as 1; DNAJB1 intron 2 retention (level of intron retention) (DNAJB1): highest level of intron retention; splicing activity over the genes tested (HCT116 tumor cells): comparable or slightly reduced splice modulatory activity as 1 |
| CC[C@H](OC)[C@@H](C)[C@H]1O[C@@H]1[C@@H](OC)[C@H](C)/C=C/C=C(\C)[C@H]1OC(=O)C[C@H](O)CC[C@@](C)(O)[C@@H](OC(C)=O)/C=C/[C@@H]1C [Analog 1f, 17-methoxy-17S-FD-895] |  |  | 0.0376 | more effective than 1 | fold loss in activity ([1]; HCT116 GI50, double modification (methylation and inversion at C17)): 10 fold; GI50 ([1]; HCT116, 72 h treatment, MTS cell viability assay, read-out: GI50 value): 0.038 µM |
| CC[C@H](OC)[C@@H](C)[C@H]1O[C@@H]1[C@@H](O)[C@H](C)/C=C/C=C(\C)[C@H]1OC(=O)C[C@H](O)CC[C@@](C)(O)[C@H](OC(C)=O)/C=C/[C@@H]1C [Analog 1h, 7R,17S-FD-895] | 0.806 | 0.806 |  |  | fold less effective compared to 1b ([1]; HCT116 GI50, compared to 1b): 1.8 fold; fold less effective compared to 1d ([1]; HCT116 GI50, compared to 1d): 380 fold |

From patent US12172988B2, “Anticancer and antifungal splice modulators” (priority 2021, dated 2024)
